Like-named read-outs stand apart in the source and are kept apart here.
How the values were obtained:
KG-1 (Myeloid) = test: Anti-proliferation in KG-1 cells; format: cell-based, human; conditions: read-out: Anti-Proliferation EC50
Description: (§1) Compounds were tested using human and canine lymphoblasts (stimulated with a T-cell mitogen phytohaemagglutinin (PHA) or a B-cell mitogen pokeweed mitogen (PWM)), two T-lymphoid cell lines derived from patients with acute lymphocytic leukemia (CEM and Molt-4), two myeloid cell lines derived from patients with acute myelogenous leukemia (KG-1 and HL-60), two B-lymphoid cell lines derived from Burkitt's lymphoma (Daudi and Raji), a B-lymphoid cell line from non-Hodgkin's lymphoma (RL), a T-lymphoid cell line from cutaneous T-lymphoma (PM-1), and a monocytic cell line from histiocytic lymphoma (U937). Lymphoblasts (150,000 cells per microtiter well) and leukemia/lymphoma cell lines (30,000 cells per well) were incubated with 5-fold serial dilutions of compounds for 3 days.

[1] = system: PHA-blast (human T-cells); test: Anti-proliferation in human PHA-lymphoblasts (BrdU/XTT); format: cell-based; conditions: read-out: Anti-Proliferation EC50
HL-60 (Myeloid) = test: Anti-proliferation in HL-60 cells; format: cell-based, human; conditions: read-out: Anti-Proliferation EC50
Description: as §1

PM-1 (T-lymphoid) = test: Anti-proliferation in PM-1 cells; format: cell-based, human; conditions: read-out: Anti-Proliferation EC50
Description: as §1

U937 (Monocytic) = test: Anti-proliferation in U937 cells; format: cell-based, human; conditions: read-out: Anti-Proliferation EC50
Molt 4 (T-lymphoid) = test: Anti-proliferation in Molt 4 cells; format: cell-based, human; conditions: read-out: Anti-Proliferation EC50
Description: as §1

CEM (T-lymphoid) = test: Anti-proliferation in CEM cells; format: cell-based, human; conditions: read-out: Anti-Proliferation EC50
Description: as §1

[2] = system: PWM-blast (canine B-cells); test: Anti-proliferation in canine PWM-lymphoblasts (BrdU/XTT); format: cell-based; conditions: Canis lupus familiaris, B-cell, 72 h, 3 days incubation
[3] = system: PWM-blast (human B-cells); test: Anti-proliferation in human PWM-lymphoblasts (BrdU/XTT); format: cell-based; conditions: B-cell, 72 h, 3 days incubation
Raji (B-lymphoid) = test: Anti-proliferation in Raji cells; format: cell-based, human; conditions: 3 days incubation
Description: as §1

Daudi (B-lymphoid) = test: Anti-proliferation in Daudi cells; format: cell-based, human; conditions: 3 days incubation
Description: as §1

[4] = system: PHA-blast (canine T-cells); test: Anti-proliferation in canine PHA-lymphoblasts (BrdU/XTT); format: cell-based; conditions: Canis lupus familiaris, T-cell, 72 h, 3 days incubation
[5] = system: lymphoblasts and leukemia/lymphoma cell lines; test: Anti-proliferation, EC50 range over the cell panel; format: cell-based; conditions: range over a variety of lymphoblasts and leukemia/lymphoma cell lines
Description: A variety of compounds that are used for treatment of hematologic malignancies were also tested, including a DNA polymerase inhibitor (ara-C), DNA polymerase/ribonucleotide reductase inhibitors (cladribine, clofarabine, fludarabine, gemcitabine), an adenosine deaminase inhibitor (deoxycoformycin), a DNA methylation inhibitor (decitabine), a […] (doxorubicin), and a mitosis inhibitor (vincristine). All compounds, with the exception of doxorubicin and vincristine, are nucleoside analogs; ara-C, gemcitabine, and decitabine are cytosine analogs and the rest are adenosine analogs. cpr-PMEDAP and PMEG can be considered adenosine and guanosine analogs, respectively. Compounds were tested using human and canine lymphoblasts (stimulated with a T-cell mitogen phytohaemagglutinin (PHA) or a B-cell mitogen pokeweed mitogen (PWM)), two T-lymphoid cell lines derived from patients with acute lymphocytic leukemia (CEM and Molt-4), two myeloid cell lines derived from patients with acute myelogenous leukemia (KG-1 and HL-60), two B-lymphoid cell lines derived from Burkitt's lymphoma (Daudi and Raji), a B-lymphoid cell line from non-Hodgkin's lymphoma (RL), a T-lymphoid cell line from cutaneous T-lymphoma (PM-1), and a monocytic cell line from histiocytic lymphoma (U937).
Lymphoblasts (150,000 cells per microtiter well) and leukemia/lymphoma cell lines (30,000 cells per well) were incubated with 5-fold serial dilutions of compounds for 3 days. BrdU assay was performed as follows: Lymphoblasts were incubated with 5-fold serial dilutions of compounds in microtiter plates (150,000 cells per well) for 3 days. On Day 3, cells were labeled with 10 μM BrdU for 3 hrs and the amount of BrdU incorporated into cellular DNA was quantified by Enzyme-Linked Immunosorbent Assay (ELISA). Alternatively, cells were incubated with 1 mg/mL XTT reagent (sodium 3,3′-[1[(phenylamino) carbonyl]-3,4-tetrazolium]-bis(4-methoxy-6-nitro) benzene sulfonic acid hydrate) and 1% PMS (phenazine methosulfate) for 2 hrs, and color change (mitochondrial dehydrogenase reduces yellow-colored XTT to orange-colored formazan salt) was quantified. […] Assays were repeated 2-20 times, until the standard error of the mean (SEM) became smaller than 50% of the mean value.

Hygroscopicity = format: physicochemical
RL (B-lymphoid) = test: Anti-proliferation in RL cells; format: cell-based; conditions: Homo sapiens, 72 h, 3 days incubation
Description: as §1

[6] = dog, in vivo
Description: • Dogs were administered various prodrugs of cpr-PMEDAP as 0.2 mg/kg 30 minute IV infusions. […] Alanine was the L isomer. • Blood was collected into potassium EDTA and separated by centrifugation. Primary blood mononuclear cells (PBMCs) were collected using CPT tubes (sodium citrate). • For analysis, plasma samples were precipitated by addition of 100 μL acetonitrile containing internal standards (D4AP and TDF) to 100 μL of plasma for prodrug analysis. After protein precipitation by centrifugation, 100 μL was transferred into another tube to be dried and then reconstituted in 100 μL water with 0.2% formic acid. An aliquot of 20 μL was injected onto the column for LC/MS/MS analysis. Analysis was done using a 150×2.0 mm, 4 μm Synergi Fusion-RP 80A column (Phenomenex) and a multistage linear gradient from 0.5 to 99% acetonitrile in the presence of 0.2% formic acid at 0.25 mL/min. Analytes were detected using a Sciex API-4000 mass spectrometer using electrospray ionization in positive MRM mode. […] Separate aliquots of cells from each time point resuspended in 100% serum were used to establish the cell quantities in each sample. Cell samples were normalized to 15×10^6 cells per sample. […] 20 μL was injected for LC/MS/MS analysis using a 50×2.0 mm, 4 μm Synergi Hydro-RP 80A column (Phenomenex) and a multistage linear gradient from 0 to 95% acetonitrile in the presence of 0.2% formic acid at 1.0 mL/min. Analytes were detected using a Sciex API-4000 mass spectrometer using electrospray ionization in positive MRM mode. • After drying, samples for dephosphorylation were treated with 1 U of calf intestinal phosphatase (alkaline phosphotase, Sigma) for 2 h in manufacturer provided buffer. Samples were then adjusted to 60% acetonitrile dried and resuspended in 60% acetonitrile containing internal standards (TDF and D4AP) and analyzed for cpr-PMEDAP as described for direct PBMC analysis.

[7] = system: a variety of tumor cell lines; conditions: in vitro cell culture; cited from earlier work
[8] = Homo sapiens, 72 h, KG-1 (Myeloid), 3 days incubation
[9] = T-cell, 72 h, PHA-blast (human T-cells), 3 days incubation
[10] = Homo sapiens, 72 h, HL-60 (Myeloid), 3 days incubation
[11] = Homo sapiens, 72 h, PM-1 (T-lymphoid), 3 days incubation
[12] = Homo sapiens, U-937, 72 h, U937 (Monocytic), 3 days incubation
[13] = Homo sapiens, 72 h, Molt 4 (T-lymphoid), 3 days incubation
[14] = Homo sapiens, 72 h, CEM (T-lymphoid), 3 days incubation
[15] = KG-1 (Myeloid), 3 days incubation
[16] = PHA-blast (human T-cells), 3 days incubation
[17] = HL-60 (Myeloid), 3 days incubation
[18] = PM-1 (T-lymphoid), 3 days incubation
[19] = U937 (Monocytic), 3 days incubation
[20] = Molt 4 (T-lymphoid), 3 days incubation
[21] = CEM (T-lymphoid), 3 days incubation

Row | Compound | EC50 ([1]; Homo sapiens, T-cell, 72 h) | EC50 (KG-1 (Myeloid); [8]) | EC50 (Raji (B-lymphoid); Homo sapiens, 72 h) | EC50 (Daudi (B-lymphoid); Homo sapiens, 72 h) | EC50 (HL-60 (Myeloid); [10]) | EC50 (PM-1 (T-lymphoid); [11]) | EC50 (U937 (Monocytic); [12]) | EC50 (Molt 4 (T-lymphoid); [13]) | EC50 [5] | EC50 (RL (B-lymphoid)) | EC50 (CEM (T-lymphoid); [14]) | other results
1 | Nc1ncn([C@H]2C[C@H](O)[C@@H](CO)O2)c(=O)n1 [Decitabine] | 0.204 µM |  |  |  |  |  |  |  |  |  |  | EC50 (KG-1 (Myeloid); Homo sapiens, KG-1, 72 h): 0.083 µM; EC50 (HL-60 (Myeloid); Homo sapiens, HL-60, 72 h): 3.83 µM; EC50 (PM-1 (T-lymphoid); Homo sapiens, T-lymphoid, 72 h): > 20 µM; EC50 (U937 (Monocytic); Homo sapiens, U-937, 72 h): 0.077 µM; EC50 (Molt 4 (T-lymphoid); Homo sapiens, MOLT-4, 72 h): 0.58 µM; EC50 (CEM (T-lymphoid); Homo sapiens, T-lymphoid, 72 h): 3 µM
2 | CCOC(=O)C(C)NP(=O)(COCCn1cnc2c(NC3CC3)nc(N)nc21)NC(C)C(=O)OCC (stereo not drawn) [Compound 1] |  | 1.04 µM | 0.089 µM | 0.027 µM | 0.214 µM | 0.125 µM | 0.394 µM | 0.0273 µM | 0.027 to 1.04 µM | 0.078 µM | 0.156 µM | EC50 [2]: 0.014 µM; EC50 [3]: 0.042 µM; EC50 [1, 9]: 0.135 µM; EC50 [4]: 0.03 µM; hygroscopicity (Hygroscopicity): hygroscopic
3 | C[C@H](NP(=O)(COCCn1cnc2c(NC3CC3)nc(N)nc21)Oc1ccccc1)C(=O)OC(C)(C)C (single isomer, unassigned) [MonoAlatBu(A)] |  |  |  |  |  |  |  |  |  |  |  | PBMC to Plasma ratio [6]: 19
4 | Nc1nc(N)c2ncn(CCOCP(=O)(O)O)c2n1 [PMEDAP, 9-(2-phosphonylmethoxyethyl)-2,6-diaminopurine] |  | 7.63 µM | 24.9 µM | 14 µM | 21.7 µM | 22.7 µM | 24.4 µM | 27.9 µM |  |  | 19.9 µM | EC50 [1, 9]: 8.95 µM
5 | COc1cccc2c1C(=O)c1c(O)c3c(c(O)c1C2=O)C[C@@](O)(C(=O)CO)C[C@@H]3O[C@H]1C[C@H](N)[C@H](O)[C@H](C)O1 [Doxorubicin] | 0.0076 µM | 0.028 µM | 0.0086 µM | 0.0038 µM | 0.024 µM | 0.0295 µM | 0.013 µM | 0.0012 µM |  | 0.025 µM |  | 
6 | CC(C)OC(=O)[C@H](C)NP(=O)(COCCn1cnc2c(NC3CC3)nc(N)nc21)Oc1ccccc1 (stereo partly drawn) [MonoAlaiPr] |  |  |  |  |  |  |  |  |  |  |  | PBMC to Plasma ratio [6]: 17
7 | Nc1nc(Cl)nc2c1ncn2[C@H]1C[C@H](O)[C@@H](CO)O1 [Cladribine] | 0.296 µM | 0.089 µM | 0.012 µM | 0.525 µM | 0.05 µM | 0.04 µM | 0.02 µM | 0.074 µM |  | 0.004 µM | 1.17 µM | 
8 | C[C@H](NP(=O)(COCCn1cnc2c(NC3CC3)nc(N)nc21)Oc1ccccc1)C(=O)OC(C)(C)C (stereo partly drawn) [MonoAlatBu] |  |  |  |  |  |  |  |  |  |  |  | PBMC to Plasma ratio [6]: 12
9 | Nc1nc(F)nc2c1ncn2[C@@H]1O[C@H](CO)[C@@H](O)[C@@H]1O [Fludarabine des-phosphate] | 1.1 µM | 4.52 µM |  |  | 1.77 µM | 12.9 µM | 0.3 µM | 1.55 µM |  |  | > 40 µM | 
10 | CC(C)OC(=O)[C@H](C)NP(=O)(COCCn1cnc2c(NC3CC3)nc(N)nc21)N[C@@H](C)C(=O)OC(C)C [BisAlaiPr] |  |  |  |  |  |  |  |  |  |  |  | PBMC to Plasma ratio [6]: 1.2
11 | Nc1nc2c(ncn2CCOCP(=O)(O)O)c(=O)[nH]1 [PMEG, 9-(2-phosphonylmethoxyethyl)guanine] |  |  |  |  |  |  |  |  |  |  |  | EC50 (KG-1 (Myeloid); [15]): 2.93 µM; EC50 [1, 16]: 1.68 µM; EC50 (Raji (B-lymphoid)): 2.72 µM; EC50 (Daudi (B-lymphoid)): 0.994 µM; EC50 (HL-60 (Myeloid); [17]): 3.92 µM; EC50 (PM-1 (T-lymphoid); [18]): 4.02 µM; EC50 (U937 (Monocytic); [19]): 4.01 µM; EC50 (Molt 4 (T-lymphoid); [20]): 1.74 µM; EC50 (CEM (T-lymphoid); [21]): 5.2 µM
12 | Nc1ccn([C@@H]2O[C@H](CO)[C@@H](O)C2(F)F)c(=O)n1 [Gemcitabine] |  | 0.0057 µM | 0.0034 µM | 0.006 µM | 0.0086 µM | 0.016 µM | 0.031 µM | 0.0085 µM | 0.0034 to 0.018 µM | 0.018 µM | 0.021 µM | EC50 [1, 9]: 0.0096 µM
13 | CC[C@]1(O)C[C@H]2CN(CCc3c([nH]c4ccccc34)[C@@](C(=O)OC)(c3cc4c(cc3OC)N(C=O)[C@H]3[C@@](O)(C(=O)OC)[C@H](OC(C)=O)[C@]5(CC)C=CCN6CC[C@]43[C@@H]65)C2)C1 [Vincristine] |  | 0.0032 µM | 0.0025 µM | 0.0006 µM | 0.002 µM | 0.0053 µM | 0.0028 µM | 0.0004 µM | 0.0006 to 0.0053 µM | 0.0014 µM | 0.002 µM | EC50 [2]: 0.0009 µM; EC50 [3]: 0.0009 µM; EC50 [1, 9]: 0.0024 µM; EC50 [4]: 0.0009 µM
14 | OC[C@H]1O[C@@H](n2cnc3c2NC=NC[C@H]3O)C[C@@H]1O [Deoxy coformycin] | > 200 µM | > 200 µM |  |  | > 200 µM |  | > 200 µM | > 200 µM | > 200 µM |  |  | 
15 | Nc1nc(Cl)nc2c1ncn2[C@@H]1O[C@H](CO)[C@@H](O)[C@@H]1F [Clofarabine] | 0.062 µM | 0.06 µM | 0.0194 µM | 0.221 µM | 0.073 µM | 0.145 µM | 0.037 µM | 0.025 µM | 0.025 to 0.418 µM | 0.0495 µM | 0.418 µM | EC50 [2]: 0.093 µM; EC50 [3]: 0.126 µM; EC50 [4]: 0.146 µM
16 | Nc1nc(NC2CC2)c2ncn(CCOCP(=O)(O)O)c2n1 [GS-8369, 9-(2-phosphonylmethoxyethyl)-N^6-cyclopropyl-2,6-diaminopurine] |  |  |  |  |  |  |  |  |  |  |  | EC50 (KG-1 (Myeloid); [15]): 1.11 µM; EC50 [1, 16]: 2.35 µM; EC50 (Daudi (B-lymphoid)): 1.84 µM; EC50 (HL-60 (Myeloid); [17]): 1.61 µM; EC50 (PM-1 (T-lymphoid); [18]): 6.73 µM; EC50 (U937 (Monocytic); [19]): 4.48 µM; EC50 (Molt 4 (T-lymphoid); [20]): 1.47 µM; antiproliferative and differentiation-inducing effect [7]: effective; EC50 (CEM (T-lymphoid); [21]): 2.22 µM
17 | Nc1ccn([C@@H]2O[C@H](CO)[C@@H](O)[C@@H]2O)c(=O)n1 [Ara-C, Cytarabine] | 1.82 µM | 0.056 µM | 0.023 µM | 0.209 µM | 0.212 µM | 0.194 µM | 0.038 µM | 0.023 µM | 0.023 to 1.82 µM | 0.61 µM | 0.143 µM | 

Reference: US20090258840A1, “METHOD AND COMPOSITIONS FOR TREATING HEMATOLOGICAL MALIGNANCIES” (Gilead Sciences, Inc., priority 2006, published 2009)
